Common to all, as to details: qualitative statement, no test described
Data set [1] is described as follows: bioavailability (stated in words only). The format is in vivo.
Data set [2] can be described thus: metabolic stability (stated in words only). The class given is in vitro ADME.
The target of data set [3] is P2T (P2YADP or P2TAC) receptor (Homo sapiens, UniProt Q9H244). Put plainly: P2T receptor antagonism (potency stated in words only).
Chain of P2T (P2YADP or P2TAC) receptor (Q9H244 whole entry): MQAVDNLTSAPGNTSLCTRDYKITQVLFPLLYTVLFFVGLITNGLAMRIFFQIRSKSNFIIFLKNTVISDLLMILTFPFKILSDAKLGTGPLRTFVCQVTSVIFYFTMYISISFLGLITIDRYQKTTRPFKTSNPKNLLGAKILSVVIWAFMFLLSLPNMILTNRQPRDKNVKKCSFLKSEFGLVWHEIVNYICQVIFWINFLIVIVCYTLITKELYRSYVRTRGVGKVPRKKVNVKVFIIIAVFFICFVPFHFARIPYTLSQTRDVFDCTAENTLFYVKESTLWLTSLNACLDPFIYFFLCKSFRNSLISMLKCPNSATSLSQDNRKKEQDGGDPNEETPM

Take `CCCSc1nc(N[C@@H]2C[C@H]2c2ccc(F)c(F)c2)c2nnn([C@@H]3C[C@H](OCCO)[C@@H](O)[C@H]3O)c2n1` (relative stereo) [compound of formula (I), {1S-[1α, 2α, 3β(1S*,2R*),5β]}-3-(7-{[2-3,4-difluorophenyl)cyclopropyl]amino}-5-(propylthio)-3H-1,2,3-triazolo[4,5-d]pyrimidin-3-yl)-5-(2-hydroxyethoxy)cyclopentane-1,2-diol]: the bioavailability entry in data set [1] is “surprisingly high”. Besides, the metabolic stability entry in data set [2] was “surprisingly high”. Moreover, in data set [3], the “potency as a P2T (P2YADP or P2TAC) antagonist” value is “high potency”.

(Values after US7265124B2, “Cristalline and amorphous form of a triazolo (4,5-D) pyridimine compound” (AstraZeneca AB, priority 2000, dated 2007).)
